Residues, ends and D or L forms follow the SMILES beside them.
Experiments:
[1] = test system: TFPI-dependent thrombin generation in FVIII deficient plasma; experiment: thrombin generation (calibrated automated thrombography) in FVIII deficient plasma; settings: plasma-based assay, FIGS. 11A and 11B
TFPI-1 = target: T1, TFPI-1 (Homo sapiens, UniProt P10646); experiment: FXa inhibition assay; type: biochemical; settings: OD readings after 115 minutes
T1 sequence (P10646 29-304): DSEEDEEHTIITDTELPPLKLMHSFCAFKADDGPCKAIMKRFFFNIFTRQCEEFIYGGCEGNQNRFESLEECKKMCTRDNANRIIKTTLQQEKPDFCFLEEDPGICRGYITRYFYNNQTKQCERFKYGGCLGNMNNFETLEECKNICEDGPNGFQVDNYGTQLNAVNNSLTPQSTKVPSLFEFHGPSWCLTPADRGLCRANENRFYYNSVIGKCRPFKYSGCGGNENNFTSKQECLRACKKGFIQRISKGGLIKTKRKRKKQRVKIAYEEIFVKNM

[2] = in vivo, iv, 10 mg/kg
Procedure: The peptides were administered intravenously to C57Bl6 mice at a dose of 10 mg/kg. Three biological samples were analyzed for the presence of peptide at each time point.

**Q.** For `CSCC[C@@H]1NC(=O)CNC(=O)[C@@H](NC(=O)[C@H](Cc2ccccc2)NC(=O)[C@H](Cc2c[nH]c3ccccc23)NC(=O)[C@H](CCCCN)NC(=O)[C@H](Cc2ccc(O)cc2)NC(=O)[C@H](CCCNC(=N)N)NC(=O)[C@H](CO)NC(=O)[C@H](C)NC(=O)CNC(=O)[C@H](CO)NC(C)=O)CSSC[C@@H](C(=O)N[C@H](C(=O)N[C@@H](Cc2c[nH]c3ccccc23)C(=O)N[C@H](C(=O)N[C@@H](CCCCN)C(=O)N[C@@H](Cc2ccccc2)C(=O)N[C@@H](CCCNC(=N)N)C(=O)N[C@@H](Cc2ccc(O)cc2)C(=O)N[C@@H](CC(=O)O)C(=O)N[C@H](C(=O)N[C@@H](CO)C(N)=O)[C@@H](C)O)C(C)C)C(C)C)NC(=O)[C@H](CO)NC(=O)[C@H](CCSC)NC(=O)[C@H]([C@@H](C)O)NC(=O)CNC(=O)[C@H](CCCCN)NC(=O)[C@H](CCSC)NC(=O)[C@H](CC(=O)O)NC(=O)[C@H](CCCNC(=N)N)NC1=O` [JBT0120], which “peak thrombin and peak time” value [1] is on record?
**A.** Its value is “improved peak thrombin and peak time, dose dependently”.

**Q.** Which EC50 (TFPI-1) does the source give for `CC(=O)N[C@@H](Cc1ccccc1)C(=O)N[C@@H](CCC(N)=O)C(=O)N[C@@H](CO)C(=O)N[C@@H](CCCCN)C(=O)N[C@@H](CC(N)=O)C(=O)N[C@@H](CC(N)=O)C(=O)N[C@H](C(=O)N[C@@H](Cc1ccccc1)C(=O)N[C@H](C(=O)N[C@@H](Cc1ccccc1)C(=O)NCC(=O)N[C@@H](Cc1ccc(O)cc1)C(=O)N[C@@H](Cc1ccccc1)C(=O)N[C@@H](CCC(=O)O)C(=O)N[C@@H](CCCNC(=N)N)C(=O)N[C@@H](CC(C)C)C(=O)N[C@@H](CCCNC(=N)N)C(=O)N[C@@H](C)C(=O)N[C@@H](CCCCN)C(=O)N[C@@H](CC(C)C)C(N)=O)C(C)C)C(C)C` [JBT0297] (Ac-FQSKNNVFVFGYFERLRAKL-NH2) here?
**A.** Its EC50 is 600 nM.

**Q.** With `CC(=O)N[C@@H](Cc1ccccc1)C(=O)N[C@@H](CCC(N)=O)C(=O)N[C@@H](CO)C(=O)N[C@@H](CCCCN)C(=O)NCC(=O)N[C@@H](CC(N)=O)C(=O)N[C@H](C(=O)N[C@@H](Cc1ccccc1)C(=O)N[C@H](C(=O)N[C@@H](CC(=O)O)C(=O)NCC(=O)N[C@@H](Cc1ccc(O)cc1)C(=O)N[C@@H](Cc1ccccc1)C(=O)N[C@@H](CCC(=O)O)C(=O)N[C@@H](CCCNC(=N)N)C(=O)N[C@@H](CC(C)C)C(=O)NC(C)(C)C(=O)N[C@@H](C)C(=O)N[C@@H](CCCCN)C(=O)N[C@@H](CC(C)C)C(N)=O)C(C)C)C(C)C` [JBT0740] as the compound, how does the “concentration of peptide in mouse plasma over time” value [2] read?
**A.** The value was “rapidly cleared from the plasma”.

From patent publication US11001613B2, “TFPI inhibitors and methods of use” (priority 2008, dated 2021)
